Experimental data: ChEMBL document CHEMBL1201862, “PubChem BioAssay data set” (2004)
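Dose response: 5 concentrations. Exposure: 48 h. Format: 96-well plates. Endpoint: linear interpolation; highest concentration if not reached. GI50: concentration for 50% inhibition of growth.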 Activity calls are given as the source filed them. No stated cut-off is given here; in the data, active = GI50 up to about 1.1 µM and inactive = higher.

Columns and labels:
Test in all cases: NCI tumour cell line growth inhibition, 48 h
[1] = system: ACHN
[2] = system: Hs-578T
[3] = system: HOP-92
[4] = system: MDA-MB-435
[5] = system: KM12
[6] = system: SN12C
[7] = system: SK-MEL-28
[8] = system: PC-3
[9] = system: OVCAR-5
[10] = system: MCF7
[11] = system: NCI/ADR-RES
[12] = system: MDA-MB-231
[13] = system: M14
[14] = system: CCRF-CEM
[15] = system: OVCAR-8
[16] = system: HCC 2998
[17] = system: RXF 393
[18] = system: SR
[19] = system: UACC-62
[20] = system: SK-OV-3

Measured: GI50

COc1cc2nncc(SCc3ccc(Cl)c(Cl)c3)c2cc1OC
inactive: [1] > 48.4 µM | [2] 80 µM | [3] > 45.8 µM | [4] > 100 µM | [5] > 62.7 µM | [6] > 100 µM | [7] > 100 µM | [8] > 100 µM | [9] 98.4 µM | [10] 89.5 µM | [11] > 100 µM | [12] > 100 µM | [13] > 35.6 µM | [14] > 100 µM | [15] > 100 µM | [16] > 100 µM | [17] 35.3 µM | [18] > 100 µM | [19] 14 µM | [20] > 71.3 µM

CN(C)CCCNC(=O)c1cn2c(ccc3sc4ccccc4c(=O)c32)n1
inactive: [1] 11.8 µM | [2] 15.7 µM | [3] 2.15 µM | [4] 13.6 µM | [5] 12 µM | [6] 4.56 µM | [7] 5.46 µM | [8] 4.8 µM | [9] 10.6 µM | [10] 3.73 µM | [11] 2.95 µM | [12] 1.31 µM | [13] 12.9 µM | [14] 2.05 µM | [15] 4.85 µM | [16] 11.7 µM | [17] 5.94 µM | [18] 1.95 µM | [19] 17.9 µM | [20] 16.9 µM

COc1ccc(N2C(=O)/C(=C\c3ccccc3)SC2c2cc(OC)c(OC)c(OC)c2)cc1 (stereo not given)
inactive: [1] 60.3 µM | [2] 84.5 µM | [3] > 100 µM | [4] 20 µM | [5] 44.3 µM | [6] > 100 µM | [7] > 100 µM | [8] 39.2 µM | [9] > 100 µM | [10] 38.4 µM | [11] > 100 µM | [12] 88.5 µM | [13] 28.5 µM | [14] 10.7 µM | [15] > 100 µM | [16] > 100 µM | [17] 31.3 µM | [18] 29.9 µM | [19] 52.5 µM | [20] 48.9 µM

CCc1cc2c(c3c1CCCC3)CC1(Cc3ccc(C(=O)OC)cc3C1)C2 (stereo not given)
inactive: [1] > 100 µM | [2] 60.3 µM | [3] 36.7 µM | [4] 52.6 µM | [5] > 100 µM | [6] > 100 µM | [7] > 100 µM | [8] 65 µM | [9] > 100 µM | [10] > 100 µM | [11] > 100 µM | [12] > 100 µM | [13] > 100 µM | [14] 18.3 µM | [15] > 100 µM | [16] > 100 µM | [17] > 100 µM | [18] 28.9 µM | [19] > 100 µM | [20] > 100 µM

CC(C)NC(=O)OCc1c(COC(=O)NC(C)C)n(C)c2c1ccc1sccc12
inactive: [1] 7 µM | [2] 13.6 µM | [3] 4.9 µM | [4] 13.2 µM | [5] 15 µM | [6] 15.9 µM | [7] 18.1 µM | [8] 11.5 µM | [9] 30.6 µM | [10] 13.5 µM | [11] > 25.4 µM | [12] 20.1 µM | [13] 14.1 µM | [14] 10.2 µM | [15] > 100 µM | [16] 15.2 µM | [17] 12.2 µM | [18] 4.19 µM | [19] 10.2 µM | [20] 24.9 µM
